Measured values reported in ChEMBL document CHEMBL1201862, “PubChem BioAssay data set” (2004).
The source made the active and inactive calls.

Tests used:
cells [1] = assay type: functional, cell-based
cells [2] = assay type: functional, cell-based; remark: listed apart in the source
Aminopeptidase N = biological target: T1, Aminopeptidase N (Plasmodium falciparum FcB1/Columbia, UniProt O96935); test: P. falciparum M1AAP inhibitors, biochemical, fluorogenic H-Leu-NHMec substrate, 1536-well (AID 1445); design: species or system Plasmodium falciparum 3D7, 3D7
T1 sequence (O96935 whole entry): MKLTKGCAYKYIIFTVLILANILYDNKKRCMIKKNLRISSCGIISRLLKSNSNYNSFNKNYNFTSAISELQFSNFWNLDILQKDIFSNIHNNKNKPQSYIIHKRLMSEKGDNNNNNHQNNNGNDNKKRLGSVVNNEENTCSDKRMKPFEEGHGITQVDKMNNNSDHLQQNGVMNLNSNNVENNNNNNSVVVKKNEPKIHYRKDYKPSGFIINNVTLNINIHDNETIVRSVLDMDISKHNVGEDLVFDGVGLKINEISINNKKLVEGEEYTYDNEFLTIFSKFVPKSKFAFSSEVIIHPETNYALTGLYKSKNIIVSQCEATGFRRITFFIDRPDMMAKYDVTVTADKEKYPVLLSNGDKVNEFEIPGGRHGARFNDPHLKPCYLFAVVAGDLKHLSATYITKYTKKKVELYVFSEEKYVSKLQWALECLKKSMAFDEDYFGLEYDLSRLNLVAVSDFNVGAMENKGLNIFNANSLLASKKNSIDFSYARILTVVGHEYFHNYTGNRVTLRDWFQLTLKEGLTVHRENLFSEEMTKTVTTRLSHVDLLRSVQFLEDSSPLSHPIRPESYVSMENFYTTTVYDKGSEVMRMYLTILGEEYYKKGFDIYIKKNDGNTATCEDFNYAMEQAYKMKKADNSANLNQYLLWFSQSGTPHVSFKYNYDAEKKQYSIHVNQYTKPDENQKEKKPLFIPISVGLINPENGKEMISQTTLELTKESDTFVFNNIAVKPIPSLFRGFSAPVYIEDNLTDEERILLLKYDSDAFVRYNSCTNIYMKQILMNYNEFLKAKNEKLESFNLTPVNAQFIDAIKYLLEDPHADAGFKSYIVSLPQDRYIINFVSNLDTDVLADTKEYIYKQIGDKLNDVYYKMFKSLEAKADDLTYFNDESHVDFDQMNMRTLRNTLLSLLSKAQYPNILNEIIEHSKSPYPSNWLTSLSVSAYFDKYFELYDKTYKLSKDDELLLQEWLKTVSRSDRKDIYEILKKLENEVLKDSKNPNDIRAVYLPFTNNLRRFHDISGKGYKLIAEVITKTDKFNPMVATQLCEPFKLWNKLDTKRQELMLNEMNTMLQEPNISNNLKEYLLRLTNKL

[3] = HEp-2 cell cytotoxicity, dose response, cytotoxicity control for RSV inhibitor project, HTS (AID 2410); assay type: functional; conditions: human respiratory syncytial virus
[4] = biological target: T2, RNA-binding protein pos-1 (Caenorhabditis elegans, UniProt G5EF15); test: inhibitors of POS-1/mex-3 RNA binding, dose response, biochemical, fluorescence polarization (AID 1964);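 also: purified POS-1 fused to maltose binding protein made in E. coli; potency of compounds blocking POS-1 binding to fluorescent RNA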
T2 sequence (G5EF15 whole entry): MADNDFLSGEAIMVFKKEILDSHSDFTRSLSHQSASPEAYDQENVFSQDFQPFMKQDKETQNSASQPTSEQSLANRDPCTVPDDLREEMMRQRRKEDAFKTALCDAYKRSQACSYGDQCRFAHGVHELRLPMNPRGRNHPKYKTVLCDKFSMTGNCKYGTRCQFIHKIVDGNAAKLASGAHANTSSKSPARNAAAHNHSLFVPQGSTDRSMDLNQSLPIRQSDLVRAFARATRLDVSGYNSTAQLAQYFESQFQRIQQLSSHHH

[5] = biological target: T3, Zinc finger protein mex-5 (Caenorhabditis elegans, UniProt Q9XUB2); test: MEX-5/TCR-2 RNA interaction inhibitors, dose response, biochemical, C. elegans, fluorescence polarization (AID 1960)
T3 sequence (Q9XUB2 whole entry): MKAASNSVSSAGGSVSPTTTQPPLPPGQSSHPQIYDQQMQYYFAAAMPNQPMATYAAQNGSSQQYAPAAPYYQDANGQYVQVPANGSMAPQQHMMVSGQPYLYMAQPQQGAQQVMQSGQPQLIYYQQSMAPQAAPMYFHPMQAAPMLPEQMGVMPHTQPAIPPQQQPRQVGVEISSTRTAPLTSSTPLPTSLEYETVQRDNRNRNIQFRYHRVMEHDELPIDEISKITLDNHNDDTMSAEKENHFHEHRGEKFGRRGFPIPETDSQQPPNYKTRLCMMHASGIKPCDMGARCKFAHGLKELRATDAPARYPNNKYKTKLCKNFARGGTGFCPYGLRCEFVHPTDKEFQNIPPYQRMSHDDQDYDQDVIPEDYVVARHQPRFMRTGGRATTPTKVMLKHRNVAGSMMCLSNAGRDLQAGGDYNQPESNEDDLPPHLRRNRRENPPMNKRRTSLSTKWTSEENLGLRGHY

[6] = biological target: T4, Replicative DNA helicase DnaB (Mycobacterium tuberculosis, UniProt P9WMR3); test: DnaB intein splicing inhibitors, dose response, biochemical, cell-free fluorescence (AID 449749); assay type: functional
T4 sequence (P9WMR3 whole entry): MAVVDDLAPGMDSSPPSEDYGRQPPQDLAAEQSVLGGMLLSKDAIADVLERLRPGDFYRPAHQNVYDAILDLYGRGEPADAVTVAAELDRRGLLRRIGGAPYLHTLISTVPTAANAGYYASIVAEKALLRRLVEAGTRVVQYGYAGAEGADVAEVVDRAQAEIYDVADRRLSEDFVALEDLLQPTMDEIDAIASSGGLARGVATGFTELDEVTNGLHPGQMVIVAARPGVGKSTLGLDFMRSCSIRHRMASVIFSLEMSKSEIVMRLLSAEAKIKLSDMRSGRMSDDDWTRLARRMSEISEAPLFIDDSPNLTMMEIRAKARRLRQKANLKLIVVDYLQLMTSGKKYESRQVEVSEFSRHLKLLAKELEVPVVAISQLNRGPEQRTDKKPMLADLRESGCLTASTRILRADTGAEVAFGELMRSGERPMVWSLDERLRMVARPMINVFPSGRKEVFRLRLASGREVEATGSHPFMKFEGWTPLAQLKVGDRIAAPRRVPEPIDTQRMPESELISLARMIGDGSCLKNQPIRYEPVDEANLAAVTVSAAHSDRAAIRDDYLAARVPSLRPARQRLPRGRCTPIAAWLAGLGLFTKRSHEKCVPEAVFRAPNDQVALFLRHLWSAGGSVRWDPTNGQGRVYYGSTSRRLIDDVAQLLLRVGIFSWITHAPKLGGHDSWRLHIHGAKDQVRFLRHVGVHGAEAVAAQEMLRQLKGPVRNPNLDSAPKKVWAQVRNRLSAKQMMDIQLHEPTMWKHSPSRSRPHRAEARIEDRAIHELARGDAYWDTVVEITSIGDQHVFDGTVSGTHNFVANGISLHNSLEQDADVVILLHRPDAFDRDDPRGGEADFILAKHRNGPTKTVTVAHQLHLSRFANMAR

Protein RecA = biological target: T5, Protein RecA (Mycobacterium tuberculosis, UniProt P9WHJ3); test: Fluorescence Cell-Free Homogeneous Dose Retest to Identify Inhibitors of RecA-Intein Splicing Activity. [Related pubchem assays (depositor defined):AID2097, AID2223, AID489010, AID492950]; assay type: functional
T5 sequence (P9WHJ3 whole entry): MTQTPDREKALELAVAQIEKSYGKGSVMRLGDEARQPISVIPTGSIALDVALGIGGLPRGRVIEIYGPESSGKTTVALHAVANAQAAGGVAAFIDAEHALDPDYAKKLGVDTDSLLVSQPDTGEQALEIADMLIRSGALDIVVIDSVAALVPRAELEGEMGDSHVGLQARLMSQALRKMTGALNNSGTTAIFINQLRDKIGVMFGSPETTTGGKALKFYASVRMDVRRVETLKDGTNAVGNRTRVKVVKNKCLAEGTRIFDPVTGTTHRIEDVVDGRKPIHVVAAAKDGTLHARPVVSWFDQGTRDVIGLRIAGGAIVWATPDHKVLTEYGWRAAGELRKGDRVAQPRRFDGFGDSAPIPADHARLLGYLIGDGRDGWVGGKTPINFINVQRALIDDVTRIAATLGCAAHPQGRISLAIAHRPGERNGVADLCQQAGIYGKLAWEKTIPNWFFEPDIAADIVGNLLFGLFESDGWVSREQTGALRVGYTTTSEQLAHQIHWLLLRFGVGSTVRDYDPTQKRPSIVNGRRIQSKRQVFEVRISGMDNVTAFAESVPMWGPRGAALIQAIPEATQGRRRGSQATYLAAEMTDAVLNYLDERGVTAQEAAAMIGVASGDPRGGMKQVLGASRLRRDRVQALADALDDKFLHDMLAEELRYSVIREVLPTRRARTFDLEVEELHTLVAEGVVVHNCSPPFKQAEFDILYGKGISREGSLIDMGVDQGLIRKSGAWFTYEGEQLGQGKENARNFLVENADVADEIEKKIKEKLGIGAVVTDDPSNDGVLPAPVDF

Cytochrome P450 2C19 = Cytochrome P450 2C19 (Homo sapiens, UniProt P33261); test: Cytochrome panel assay with activity outcomes. Panel member name: p450-cyp2c19 Compounds with AC50 equal or less than 10 uM are considered active; assay type: functional; conditions: read-out: AC50
Cytochrome P450 2C9 = Cytochrome P450 2C9 (Homo sapiens, UniProt P11712)
Paired box protein Pax-8 = Paired box protein Pax-8 (Homo sapiens, UniProt Q06710); test: inhibitors of PAX8-driven TPO luciferase reporter, dose response, RMG-I cells, cherry-pick (AID 687027); assay type: functional, cell-based;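 also: luciferase reporter driven by Pax8 target thyroperoxidase promoter measured by SteadyGlo luminescence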
[7] = test system: Streptococcus sp. 'group A'; test: growth inhibition of control SK(-) GAS strain, dose response, counter-screen for streptokinase expression inhibitor project, luminescence, kanamycin, BacTiterGlo, confirmation (AID 1900); assay type: functional, organism-based
BJ [8] = test: cytotoxicity toward BJ-TERT fibroblasts, dose response, cell-based, RAS-independent, luminescence (AID 1933); assay type: functional; conditions: Homo sapiens
BJ [9] = test: cells; assay type: functional, cell-based; conditions: Homo sapiens
BJ [10] = test: cytotoxicity toward BJ-TERT-LT-ST fibroblasts, dose response, cell-based, RAS-independent, luminescence (AID 1935); assay type: functional; conditions: Homo sapiens;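 also: BJ fibroblasts immortalized with TERT plus LT and ST oncogenes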
[11] = cytotoxicity toward DRD oncogenic fibroblasts, dose response, cell-based, non-viral oncogenic, luminescence (AID 1934); assay type: functional; conditions: Homo sapiens
Streptococcus = test: Group A Streptococcus viability loss, dose response, counter-screen for streptokinase expression inhibitor project, luminescence, BacTiterGlo (AID 1915); assay type: functional, organism-based;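 also: potency for reduction of bacterial viability or growth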

Chain of Paired box protein Pax-8 (Q06710 whole entry): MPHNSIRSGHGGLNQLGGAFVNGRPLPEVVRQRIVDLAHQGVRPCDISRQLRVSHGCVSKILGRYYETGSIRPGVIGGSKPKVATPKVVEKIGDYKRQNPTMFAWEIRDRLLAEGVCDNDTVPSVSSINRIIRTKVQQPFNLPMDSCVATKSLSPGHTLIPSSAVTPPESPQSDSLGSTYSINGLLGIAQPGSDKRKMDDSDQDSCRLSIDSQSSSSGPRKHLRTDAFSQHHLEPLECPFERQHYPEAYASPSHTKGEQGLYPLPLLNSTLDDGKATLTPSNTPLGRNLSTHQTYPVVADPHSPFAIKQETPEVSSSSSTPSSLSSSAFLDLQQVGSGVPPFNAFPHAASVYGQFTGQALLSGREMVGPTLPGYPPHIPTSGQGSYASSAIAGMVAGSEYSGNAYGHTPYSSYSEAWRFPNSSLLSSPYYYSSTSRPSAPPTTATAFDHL
Chain of Cytochrome P450 2C9 (P11712 whole entry): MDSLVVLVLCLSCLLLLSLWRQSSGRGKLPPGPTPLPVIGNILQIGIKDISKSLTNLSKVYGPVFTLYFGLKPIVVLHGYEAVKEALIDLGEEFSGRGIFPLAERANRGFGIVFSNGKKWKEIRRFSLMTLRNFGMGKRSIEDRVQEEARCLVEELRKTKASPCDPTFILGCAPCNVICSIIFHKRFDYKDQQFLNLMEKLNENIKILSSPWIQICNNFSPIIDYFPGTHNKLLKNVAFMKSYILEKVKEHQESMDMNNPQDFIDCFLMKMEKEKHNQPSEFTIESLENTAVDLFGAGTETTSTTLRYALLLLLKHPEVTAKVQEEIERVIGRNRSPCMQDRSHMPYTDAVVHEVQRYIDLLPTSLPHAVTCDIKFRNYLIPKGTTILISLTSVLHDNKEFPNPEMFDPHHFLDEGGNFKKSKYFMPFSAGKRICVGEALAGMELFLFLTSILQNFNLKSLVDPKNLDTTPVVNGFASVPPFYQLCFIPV
Chain of Cytochrome P450 2C19 (P33261 whole entry): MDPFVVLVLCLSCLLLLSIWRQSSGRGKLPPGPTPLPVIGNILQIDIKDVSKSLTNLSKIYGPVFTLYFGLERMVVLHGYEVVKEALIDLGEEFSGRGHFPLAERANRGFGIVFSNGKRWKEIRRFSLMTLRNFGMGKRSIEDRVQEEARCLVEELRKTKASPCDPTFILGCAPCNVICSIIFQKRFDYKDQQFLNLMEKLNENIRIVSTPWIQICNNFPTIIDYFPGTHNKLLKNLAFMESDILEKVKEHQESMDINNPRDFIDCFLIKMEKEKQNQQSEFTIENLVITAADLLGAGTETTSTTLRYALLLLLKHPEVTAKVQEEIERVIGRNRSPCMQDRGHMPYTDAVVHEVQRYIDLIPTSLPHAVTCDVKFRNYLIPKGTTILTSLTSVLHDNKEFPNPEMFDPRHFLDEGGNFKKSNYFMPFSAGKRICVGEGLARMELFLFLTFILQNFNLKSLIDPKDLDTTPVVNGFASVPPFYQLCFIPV

COc1ccc(C(CC(=O)Nc2ccccc2OC)n2cccc2)cc1 (stereo unspecified)
EC50 (cells [1]): > 350 µM (not active) | EC50 (cells [2]): 2.27 µM (active)

Cc1cccc(OCCn2cccc2/C=C2/C(=O)NC(=O)N(Cc3ccco3)C2=O)c1
EC50 (cells [1]): > 350 µM (not active) | EC50 (cells [2]): > 350 µM (not active)

CCCOc1ccc(C(C)=O)cc1CSc1nc(O)cc(=O)[nH]1
IC50 (Aminopeptidase N): 109 µM (active)

CCOC(=O)c1sc(Nc2cccc(Cl)c2)nc1C
CC50 [3]: > 50 µM (active) | EC50 (cells [1]): > 350 µM (not active) | EC50 (cells [2]): 19.5 µM (active)

Cc1cccc(S(=O)(=O)C(C#N)c2nc3ccccc3nc2N2CCOCC2)c1 (stereo unspecified)
EC50 [4]: 163 µM (active) | EC50 [5]: > 300 µM (not active)

CCOC(=O)C1=C(Nc2ccccc2)S/C(=C\c2ccc(OCC(=O)O)c(OCC)c2)C1=O
IC50 (Aminopeptidase N): 60.2 µM (active)

O=C(COc1ccccc1/C=C1\SC(=O)NC1=O)Nc1ccccc1
IC50 (Aminopeptidase N): 32.6 µM (active)

Cc1ccc(C(=O)NC(=S)NNS(=O)(=O)c2ccc(C)cc2)cc1
EC50 (cells [1]): > 350 µM (not active) | EC50 (cells [2]): > 350 µM (not active) | AC50 [6]: 58.9 µM (active) | EC50 (Protein RecA): 146 µM (active)

CCOC(=O)N1CCN(c2nc3ccccc3nc2C(C#N)S(=O)(=O)c2ccc(C)cc2)CC1 (stereo unspecified)
EC50 [4]: > 300 µM (inconclusive) | EC50 [5]: 170 µM (inconclusive)

NS(=O)(=O)c1ccc(-c2cccc(/C=C3\SC(=O)NC3=O)c2)cc1
EC50 [4]: 13 µM (active) | EC50 [5]: 16.6 µM (active)

COc1ccc(OC)c(NC(=O)C2C3C=CC(C3)C2C(=O)NCc2cccnc2)c1 (stereo unspecified)
IC50 (Aminopeptidase N): 48.2 µM (active)

COc1ccc(/C=C/C(O)=C2\C(=O)NC(=O)N(CCC3=CCCCC3)C2=O)cc1OC
EC50 [4]: 6.09 µM (inconclusive) | EC50 [5]: > 300 µM (inconclusive)

COc1ccc(NC(=O)Nc2ccc(Br)cn2)cc1
EC50 (cells [1]): > 350 µM (not active) | EC50 (cells [2]): > 350 µM (not active)

CN1C(=O)C(=Cc2ccc(N3CCCCC3)o2)C(=O)N(C)C1=S
EC50 [4]: > 300 µM (inconclusive) | EC50 [5]: > 300 µM (inconclusive) | AC50 (Cytochrome P450 2C19): 2.82 µM (inconclusive) | AC50 (Cytochrome P450 2C9): 11.2 µM (inconclusive)

COc1cccc(NC(=S)N(CCCN2CCOCC2)Cc2cn(C)c3ccccc23)c1
EC50 (cells [1]): > 350 µM (not active) | EC50 (cells [2]): > 350 µM (not active)

O=C(Nc1nc2ccc([N+](=O)[O-])cc2s1)c1c(F)cccc1F
EC50 (cells [1]): > 350 µM (not active) | EC50 (cells [2]): 31.2 µM (active)

C[C@@H]1CN([C@H](C)CO)C(=O)c2cc(NC(=O)Nc3ccc(C(F)(F)F)cc3)ccc2O[C@@H](C)CCCCO[C@H]1CN(C)Cc1ccc(Cl)c(Cl)c1
AC50 (Paired box protein Pax-8): 6.74 µM (active)

COc1cccc(/C=N/NC(=O)c2ccc([N+](=O)[O-])cc2Cl)c1O
EC50 (cells [1]): 19.1 µM (active) | EC50 (cells [2]): 172 µM (active)

Cc1ccc(-n2nc(C)c(/C=N/NC(=O)c3cccc([N+](=O)[O-])c3)c2O)cc1C
EC50 [7]: 2.02 µM (active) | EC50 (BJ [8]): 9.53 µM (active) | EC50 (BJ [9]): 37 µM (active) | EC50 (BJ [10]): 16 µM (active) | EC50 [11]: 10 µM (active) | EC50 (Streptococcus): 6.18 µM (active)

Oc1cccc2cccnc12 [OXYQUINOLINE]
EC50 (BJ [8]): > 150 µM (not active) | EC50 (BJ [9]): 125 µM (active) | EC50 (BJ [10]): > 150 µM (not active) | EC50 [11]: 17.9 µM (active)
